Series [1] deals with HCV replicon in human hepatoma Huh-7 cell line. The series can be described thus: Anti-HCV replicon assay (EC50, luciferase). The format is cell-based. Conditions: Hepatitis C virus, Huh-7, 72 h. The gist of the method:
(§1)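 Cytotoxicity (CC50) measured by CellTiter-Glo and antiviral activity (EC50) by luciferase signal from lysed cells, both by luminescence. Replicon-bearing Huh-7 cells, 6000 per well, incubated 3 days at 37 °C with threefold-diluted compound (0.5% DMSO for DMSO-dissolved compounds).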
On the technique in general: In antiviral work, replicon cells carry a viral genome segment that copies itself.

Series [2] in a line: CC50 assay (CellTiter-Glo) in Huh-7 HCV replicon cells. The format is cell-based, human. Conditions: human, 3 days incubation, CellTiter-Glo readout. The gist of the method:
as §1
Background: In ATP-based viability assays light output follows the ATP content of the culture.

Turning to `CC(C)(C)OC(=O)N1CCN(S(=O)(=O)c2cc(-c3ccc4nc(NCc5ccc(S(N)(=O)=O)cc5)nc(NCC(F)(F)F)c4n3)ccc2F)CC1` [Example 218, 4-{2-Fluoro-5-[2-(4-sulfamoyl-benzylamino)-4-(2,2,2-trifluoro-ethylamino)-pyrido[3,2-d]pyrimidin-6-yl]-benzenesulfonyl}-piperazine-1-carboxylic acid tert-butyl ester], the EC50 – broadly, the concentration needed to bring the measured effect to its halfway point – in series [1] was below 0.1 µM. Moreover, the CC50 (usually the concentration at which the toxic effect on the cells reaches its halfway point) at 3 days in series [2] was in the range of 5 to 25 µM.

As for `CCOc1nc(NCc2ccc(S(N)(=O)=O)cc2)nc2ccc(-c3ccc(NC(=O)[C@@H](N)[C@H](C)O)cc3)nc12` [Example 226, 2-Amino-N-{4-[4-ethoxy-2-(4-sulfamoyl-benzylamino)-pyrido[3,2-d]pyrimidin-6-yl]-phenyl}-3-hydroxy-butyramide], the EC50 in series [1] was below 0.1 µM. For the same compound, the CC50 at 3 days in series [2] is above 25 µM.

Compound `CCOc1nc(NCc2ccc(F)cc2)nc2ccc(-c3cccc(S(N)(=O)=O)c3)nc12` [Example 85, 3-[4-Ethoxy-2-(4-fluoro-benzylamino)-pyrido[3,2-d]pyrimidin-6-yl]-benzenesulfonamide] gave an EC50 in series [1] below 0.1 µM. Besides, the CC50 at 3 days in series [2] fell in the range of 5 to 25 µM.

Regarding `NS(=O)(=O)c1ccc(CNc2nc(NCC(F)(F)F)c3nc(-n4cncn4)ccc3n2)cc1` [Example 285, 4-{[6-[1,2,4]Triazol-1-yl-4-(2,2,2-trifluoro-ethylamino)-pyrido[3,2-d]pyrimidin-2-ylamino]-methyl}-benzenesulfonamide], the concentration giving a half-maximal response (EC50) in series [1] is below 0.1 µM. Further, the CC50 at 3 days in series [2] is above 25 µM.

In series [1], `CCOc1nc(NCc2ccc(F)cc2)nc2ccc(-c3cccc(NS(=O)(=O)CCN4CCCC4)c3)nc12` [Example 81, 2-Pyrrolidin-1-yl-ethanesulfonic acid {3-[4-ethoxy-2-(4-fluoro-benzylamino)-pyrido[3,2-d]pyrimidin-6-yl]-phenyl}-amide] registered an EC50 below 0.1 µM. Moreover, the CC50 at 3 days in series [2] was below 5 µM.

`CCOc1nc(NCc2ccc(F)cc2)nc2ccc(-c3ccc(NC(=O)[C@@H]4C[C@@H](O)CN4)cc3)nc12` [Example 88, 4-Hydroxy-pyrrolidine-2-carboxylic acid {4-[4-ethoxy-2-(4-fluoro-benzylamino)-pyrido[3,2-d]pyrimidin-6-yl]-phenyl}-amide] registered an EC50 in series [1] below 0.1 µM. In series [2], this compound gave a CC50 at 3 days of 5 to 25 µM.

As for `NS(=O)(=O)c1ccc(CNc2nc(NCC(F)(F)F)c3nc(-c4ccc(Cl)c(S(N)(=O)=O)c4)ccc3n2)cc1` [Example 202, 2-Chloro-5-[2-(4-sulfamoyl-benzylamino)-4-(2,2,2-trifluoro-ethylamino)-pyrido[3,2-d]pyrimidin-6-yl]-benzenesulfonamide], the EC50 in series [1] was below 0.1 µM. This compound also had a cytotoxic concentration (CC50) at 3 days in series [2] below 5 µM.

As to `CCOc1nc(NCc2ccc(S(N)(=O)=O)cc2)nc2ccc(-c3ccc(NC(=O)[C@H](C)N)cc3)nc12` [Example 146, 2-Amino-N-{4-[4-ethoxy-2-(4-sulfamoyl-benzylamino)-pyrido[3,2-d]pyrimidin-6-yl]-phenyl}-propionamide], in series [1], the EC50 was below 0.1 µM. For the same compound, the CC50 at 3 days in series [2] fell in the range of 5 to 25 µM.

In series [1], `COCCOc1nc(NCc2ccc(S(N)(=O)=O)cc2)nc2ccc(-c3ccc(F)cc3)nc12` [Example 237, 4-{[6-(4-Fluoro-phenyl)-4-(2-methoxy-ethoxy)-pyrido[3,2-d]pyrimidin-2-ylamino]-methyl}-benzenesulfonamide] returned an EC50 below 0.1 µM. Besides, the CC50 at 3 days in series [2] is below 5 µM.

In series [1], `NC(=O)c1ccc(-c2ccc3nc(NCc4ccc(S(N)(=O)=O)cc4)nc(NC4CC4)c3n2)cc1` [Example 186, 4-[4-Cyclopropylamino-2-(4-sulfamoyl-benzylamino)-pyrido[3,2-d]pyrimidin-6-yl]-benzamide] showed an EC50 below 0.1 µM. In series [2], this compound gave a CC50 at 3 days above 25 µM.

`CC(C)Nc1nc(NCC(F)F)nc2ccc(-c3ccc(F)cc3)nc12` [Example 57, N2-(2,2-Difluoro-ethyl)-6-(4-fluoro-phenyl)-N4-isopropyl-pyrido[3,2-d]pyrimidine-2,4-diamine] yielded an EC50 in series [1] of 0.25 to 2 µM. The same compound returned a CC50 at 3 days in series [2] below 5 µM.

`CCOc1nc(NCc2ccc(S(N)(=O)=O)cc2)nc2ccc(-c3ccc(NC(N)=O)cc3)nc12` [Example 130, 4-{[4-Ethoxy-6-(4-ureidophenyl)-pyrido[3,2-d]pyrimidin-2-ylamino]-methyl}-benzenesulfonamide] showed an EC50 in series [1] below 0.1 µM. The same compound had a CC50 at 3 days in series [2] of 5 to 25 µM.

Compound `CN(CCS(C)(=O)=O)c1nc(NCc2ccc(F)cc2)nc2ccc(-c3ccc(NC(=O)C(C)(C)N)cc3)nc12` [Example 280, 2-Amino-N-(4-{2-(4-fluoro-benzylamino)-4-[(2-methanesulfonyl-ethyl)-methyl-amino]-pyrido[3,2-d]pyrimidin-6-yl}-phenyl)-2-methyl-propionamide] registered an EC50 in series [1] below 0.1 µM. The compound further showed a CC50 at 3 days in series [2] of 5 to 25 µM.

As to `CN(CCS(C)(=O)=O)c1nc(NCc2ccc(F)cc2)nc2ccc(-c3cccc(N(CCO)S(C)(=O)=O)c3)nc12` [Example 279, N-(3-{2-(4-Fluoro-benzylamino)-4-[(2-methanesulfonyl-ethyl)-methyl-amino]-pyrido[3,2-d]pyrimidin-6-yl}-phenyl)-N-(2-hydroxy-ethyl)-methanesulfonamide], the EC50 in series [1] is below 0.1 µM. Further, in series [2], the CC50 at 3 days was 5 to 25 µM.

For the compound `NS(=O)(=O)c1ccc(CNc2nc(NCC(F)(F)F)c3nc(-c4ccc(NC(=O)[C@H]5CCNC5)cc4)ccc3n2)cc1` [Example 222, Pyrrolidine-3-carboxylic acid {4-[2-(4-sulfamoyl-benzylamino)-4-(2,2,2-trifluoro-ethylamino)-pyrido[3,2-d]pyrimidin-6-yl]-phenyl}-amide], the EC50 in series [1] is below 0.1 µM. In series [2], this compound showed a CC50 at 3 days of 5 to 25 µM.

`CS(=O)(=O)N(CCO)c1cccc(-c2ccc3nc(NCc4ccc(S(N)(=O)=O)cc4)nc(NCC(F)F)c3n2)c1` [Example 157, 4-{[4-(2,2-Difluoroethyl)-amino-6-(4-(3-(N-2-hydroxyethyl)methane-sulfonamido)-phenyl)-pyrido[3,2-d]pyrimidin-2-ylamino]-methyl}-benzenesulfonamide] had an EC50 in series [1] below 0.1 µM. In addition, the CC50 at 3 days in series [2] is above 25 µM.

In series [1], `NS(=O)(=O)c1ccc(CNc2nc(NC3CC3)c3nc(-c4ccc(C(=O)NC5CC5)cc4)ccc3n2)cc1` [Example 185, N-Cyclopropyl-4-[4-cyclopropylamino-2-(4-sulfamoyl-benzylamino)-pyrido[3,2-d]pyrimidin-6-yl]-benzamide] displayed an EC50 below 0.1 µM. Moreover, the CC50 at 3 days in series [2] was in the range of 5 to 25 µM.

Regarding `CCOc1nc(NCc2ccc(F)cc2)nc2ccc(-c3cccc(NS(=O)(=O)C4CC4)c3)nc12` [Example 82, Cyclopropanesulfonic acid {3-[4-ethoxy-2-(4-fluoro-benzylamino)-pyrido[3,2-d]pyrimidin-6-yl]-phenyl}-amide], the EC50 in series [1] was below 0.1 µM. Also, the cytotoxic concentration (CC50) at 3 days in series [2] was below 5 µM.

In series [1], `CCOc1nc(NCc2ccc(S(C)(=O)=O)cc2)nc2ccc(-c3ccc(F)cc3)nc12` [Example 119, [4-Ethoxy-6-(4-fluoro-phenyl)-pyrido[3,2-d]pyrimidin-2-yl]-(4-methanesulfonyl-benzyl)-amine] registered an EC50 below 0.1 µM. In series [2], this compound registered a half-maximal cytotoxic concentration (CC50) at 3 days below 5 µM.

Source of the values: patent US8729089B2 (Gilead Sciences, Inc., priority 2006, dated 2014).
